Measured values as given in ChEMBL document CHEMBL5500347, “An update on antibacterial AlkylGuanidino Ureas: Design of new derivatives, synergism with colistin and data analysis of the whole library” (2024).
Converted amounts (≈) assume the structure as drawn. The source made the active and inactive calls. The calls are words filed in the database; no cut-off is given here.

Columns and labels:
Escherichia coli [1] = assay: Antibacterial activity against Escherichia coli CCUGT incubated for 18 to 24 hrs by CLSI based microdilution broth method; format: functional; settings: time 18-24 hrs
Klebsiella pneumoniae [2] = assay: Antibacterial activity against Klebsiella pneumoniae ATCC 13833 incubated for 18 to 24 hrs by CLSI based microdilution broth method; format: functional; settings: time 18-24 hrs
Acinetobacter baumannii [3] = assay: Antibacterial activity against Acinetobacter baumannii ATCC 17978 incubated for 18 to 24 hrs by CLSI based microdilution broth method; format: functional; settings: time 18-24 hrs; for MIC: Acinetobacter baumannii, ATCC 17978
Pseudomonas aeruginosa [4] = assay: Antibacterial activity against Pseudomonas aeruginosa ATCC 27853 incubated for 18 to 24 hrs by CLSI based microdilution broth method; format: functional; settings: time 18-24 hrs; for MIC: Pseudomonas aeruginosa, ATCC 27853
Pseudomonas aeruginosa [5] = assay: Synergistic antibacterial activity against Pseudomonas aeruginosa ATCC 27853 incubated for 18 to 24 hrs in presence of colistin by CLSI based microdilution broth method; format: functional; settings: time 18-24 hrs
Pseudomonas aeruginosa [6] = assay: Synergistic antibacterial activity against Pseudomonas aeruginosa ATCC 27853 assessed as potentiation fold by measuring MIC to MAC ratio incubated for 18 to 24 hrs in presence of colistin by CLSI based microdilution broth method; format: functional; settings: time 18-24 hrs
Acinetobacter baumannii [7] = assay: Synergistic antibacterial activity against Acinetobacter baumannii ATCC 17978 incubated for 18 to 24 hrs in presence of colistin by CLSI based microdilution broth method; format: functional; settings: time 18-24 hrs
Acinetobacter baumannii [8] = assay: Synergistic antibacterial activity against Acinetobacter baumannii ATCC 17978 assessed as potentiation fold by measuring MIC to MAC ratio incubated for 18 to 24 hrs in presence of colistin by CLSI based microdilution broth method; format: functional; settings: time 18-24 hrs
Acinetobacter baumannii [9] = assay: Antibacterial activity against Acinetobacter baumannii N50 incubated for 18 to 24 hrs by CLSI based microdilution broth method; format: functional; settings: time 18-24 hrs
Acinetobacter baumannii [10] = assay: Synergistic antibacterial activity against Acinetobacter baumannii N50 incubated for 18 to 24 hrs in presence of colistin by CLSI based microdilution broth method; format: functional; settings: time 18-24 hrs
Acinetobacter baumannii [11] = assay: Synergistic antibacterial activity against Acinetobacter baumannii N50 assessed as potentiation fold by measuring MIC to MAC ratio incubated for 18 to 24 hrs in presence of colistin by CLSI based microdilution broth method; format: functional; settings: time 18-24 hrs
Bacillus subtilis [12] = assay: Antibacterial activity against Bacillus subtilis ATCC 6633 incubated for 18 to 24 hrs by CLSI based microdilution broth method; format: functional; settings: time 18-24 hrs
Enterococcus faecalis [13] = assay: Antibacterial activity against Enterococcus faecalis ATCC 19433 incubated for 18 to 24 hrs by CLSI based microdilution broth method; format: functional; settings: time 18-24 hrs
Streptococcus pyogenes [14] = assay: Antibacterial activity against Streptococcus pyogenes ATCC 12344 incubated for 18 to 24 hrs by CLSI based microdilution broth method; format: functional; settings: time 18-24 hrs
Staphylococcus aureus [15] = assay: Antibacterial activity against Staphylococcus aureus ATCC 25923 incubated for 18 to 24 hrs by CLSI based microdilution broth method; format: functional; settings: time 18-24 hrs
Escherichia coli [16] = assay: Antibacterial activity against Escherichia coli CCUGT at 256 ug/ml incubated for 18 to 24 hrs by CLSI based microdilution broth method; format: functional, organism-based; settings: dose 256.0 µg/ml, time 18-24 hrs
Klebsiella pneumoniae [17] = assay: Antibacterial activity against Klebsiella pneumoniae ATCC 13833 at 256 ug/ml incubated for 18 to 24 hrs by CLSI based microdilution broth method; format: functional, organism-based; settings: dose 256.0 µg/ml, time 18-24 hrs
Acinetobacter baumannii [18] = assay: Antibacterial activity against Acinetobacter baumannii ATCC 17978 at 256 ug/ml incubated for 18 to 24 hrs by CLSI based microdilution broth method; format: functional, organism-based; settings: dose 256.0 µg/ml, time 18-24 hrs
Pseudomonas aeruginosa [19] = assay: Antibacterial activity against Pseudomonas aeruginosa ATCC 27853 at 256 ug/ml incubated for 18 to 24 hrs by CLSI based microdilution broth method; format: functional, organism-based; settings: dose 256.0 µg/ml, time 18-24 hrs
Escherichia coli [20] = assay: Synergistic antibacterial activity against Escherichia coli CCUGT incubated for 18 to 24 hrs in presence of colistin by CLSI based microdilution broth method; format: functional; settings: time 18-24 hrs
Escherichia coli [21] = assay: Synergistic antibacterial activity against Escherichia coli CCUGT assessed as potentiation fold by measuring MIC to MAC ratio incubated for 18 to 24 hrs in presence of colistin by CLSI based microdilution broth method; format: functional; settings: time 18-24 hrs
Klebsiella pneumoniae [22] = assay: Synergistic antibacterial activity against Klebsiella pneumoniae ATCC 13833 incubated for 18 to 24 hrs in presence of colistin by CLSI based microdilution broth method; format: functional; settings: time 18-24 hrs
Klebsiella pneumoniae [23] = assay: Synergistic antibacterial activity against Klebsiella pneumoniae ATCC 13833 assessed as potentiation fold by measuring MIC to MAC ratio incubated for 18 to 24 hrs in presence of colistin by CLSI based microdilution broth method; format: functional; settings: time 18-24 hrs
Bacillus subtilis [24] = assay: Antibacterial activity against Bacillus subtilis ATCC 6633 at 256 ug/ml incubated for 18 to 24 hrs by CLSI based microdilution broth method; format: functional, organism-based; settings: dose 256.0 µg/ml, time 18-24 hrs
Enterococcus faecalis [25] = assay: Antibacterial activity against Enterococcus faecalis ATCC 19433 at 256 ug/ml incubated for 18 to 24 hrs by CLSI based microdilution broth method; format: functional, organism-based; settings: dose 256.0 µg/ml, time 18-24 hrs
Streptococcus pyogenes [26] = assay: Antibacterial activity against Streptococcus pyogenes ATCC 12344 at 256 ug/ml incubated for 18 to 24 hrs by CLSI based microdilution broth method; format: functional, organism-based; settings: dose 256.0 µg/ml, time 18-24 hrs
Staphylococcus aureus [27] = assay: Antibacterial activity against Staphylococcus aureus ATCC 25923 at 256 ug/ml incubated for 18 to 24 hrs by CLSI based microdilution broth method; format: functional, organism-based; settings: dose 256.0 µg/ml, time 18-24 hrs
[28] = Escherichia coli, CCUGT, read-out: MIC
[29] = Klebsiella pneumoniae, ATCC 13833, read-out: MIC

Compound | MIC (Escherichia coli [1]; [28]) | MIC (Klebsiella pneumoniae [2]; [29]) | MIC (Acinetobacter baumannii [3]) | MIC (Pseudomonas aeruginosa [4]) | MIC (Acinetobacter baumannii [9]) | MIC (Bacillus subtilis [12]) | MIC (Enterococcus faecalis [13]) | MIC (Streptococcus pyogenes [14]) | MIC (Staphylococcus aureus [15]) | MAC (Pseudomonas aeruginosa [5]) | Ratio (Pseudomonas aeruginosa [6]) | MAC (Acinetobacter baumannii [7]) | Ratio (Acinetobacter baumannii [8]) | MAC (Acinetobacter baumannii [10]) | Ratio (Acinetobacter baumannii [11]) | Activity (Escherichia coli [16]) | Activity (Klebsiella pneumoniae [17]) | Activity (Acinetobacter baumannii [18]) | Activity (Pseudomonas aeruginosa [19]) | MAC (Escherichia coli [20]) | also measured
N=C(NCCCCCCCCN(CCCCCCCCNC(=N)NCC1CC1)C(=O)N(CCCCCCNC(=N)NCC1CC1)CCCCCCNC(=N)NCC1CC1)NCC1CC1 | 4 µg/mL (≈ 4.46 µM) | 4 µg/mL (≈ 4.46 µM) | 64 µg/mL (≈ 71.3 µM) | 128 µg/mL (≈ 143 µM) | 64 µg/mL (≈ 71.3 µM) | – | – | – | – | 128 µg/mL | 1 | 4 µg/mL | 16 | 2 µg/mL | 32 | – | – | – | – | – | –
CCNC(=N)NCCCCCCN(CCCCCCNC(=N)NCC1CC1)C(=O)N(CCCCCCNC(=N)NCC)CCCCCCNC(=N)NCC1CC1 | 8 µg/mL (≈ 10.1 µM) | 16 µg/mL (≈ 20.3 µM) | 64 µg/mL (≈ 81.1 µM) | 128 µg/mL (≈ 162 µM) | – | – | – | – | – | – | – | 4 µg/mL | 16 | – | – | – | – | – | – | 8 µg/mL | Ratio (Escherichia coli [21]): 1
CCNC(=N)NCCCCCCCCN(CCCCCCCCNC(=N)NCC)C(=O)N(CCCCCCCCNC(=N)NCC)CCCCCCCCNC(=N)NCC | 2 µg/mL (≈ 2.35 µM) | 4 µg/mL (≈ 4.71 µM) | 16 µg/mL (≈ 18.8 µM) | 64 µg/mL (≈ 75.4 µM) | 64 µg/mL (≈ 75.4 µM) | – | – | – | – | – | – | 0.5 µg/mL | 32 | 0.25 µg/mL | 256 | – | – | – | – | – | –
[N-]=[N+]=NCCCCCCCCN(CCCCCCCCNC(c1ccccc1)(c1ccccc1)c1ccccc1)C(=O)N(CCCCCCCCN=[N+]=[N-])CCCCCCCCNC(c1ccccc1)(c1ccccc1)c1ccccc1 | – | – | – | – | – | – | – | – | – | – | – | – | – | – | – | inactive | inactive | inactive | inactive | – | Activity (Bacillus subtilis [24]): inactive; Activity (Enterococcus faecalis [25]): inactive; Activity (Streptococcus pyogenes [26]): inactive; Activity (Staphylococcus aureus [27]): inactive
N=C(N)NCCCCCCCCN(CCCCCCCCNC(=N)NCC1CC1)C(=O)NC(=N)NCCCCCCCCNCCCCCCCCNC(=N)NCC1CC1 | > 256 µg/mL | > 256 µg/mL | > 64 µg/mL | > 256 µg/mL | > 64 µg/mL | – | – | – | – | 2 µg/mL | >128 | 0.125 µg/mL | >256 | 0.5 µg/mL | >128 | – | – | – | – | 0.5 µg/mL | Ratio (Escherichia coli [21]): >512; MAC (Klebsiella pneumoniae [22]): 1 µg/mL; Ratio (Klebsiella pneumoniae [23]): >256
N=C(N)NCCCCCCCCN(CCCCCCCCN)C(=O)N(CCCCCCCCN)CCCCCCCCNC(=N)NCC1CC1 | – | – | – | – | 32 µg/mL (≈ 45.3 µM) | – | – | – | – | 8 µg/mL | 16 | 8 µg/mL | 8 | 4 µg/mL | 8 | – | – | – | – | 0.5 µg/mL | MIC (Escherichia coli [1]): 32 µg/mL (≈ 45.3 µM); MIC (Klebsiella pneumoniae [2]): 64 µg/mL (≈ 90.5 µM); MAC (Acinetobacter baumannii [3]): 64 µg/mL; MAC (Pseudomonas aeruginosa [4]): 128 µg/mL; Ratio (Escherichia coli [21]): 64; MAC (Klebsiella pneumoniae [22]): 32 µg/mL; Ratio (Klebsiella pneumoniae [23]): 2

Second part, led by results:

MIC (Escherichia coli [1]; [28]) | MIC (Klebsiella pneumoniae [2]; [29]) | MIC (Acinetobacter baumannii [3]) | MIC (Pseudomonas aeruginosa [4]) | MIC (Acinetobacter baumannii [9]) | MIC (Bacillus subtilis [12]) | MIC (Enterococcus faecalis [13]) | MIC (Streptococcus pyogenes [14]) | MIC (Staphylococcus aureus [15]) | Compound | MAC (Pseudomonas aeruginosa [5]) | Ratio (Pseudomonas aeruginosa [6]) | MAC (Acinetobacter baumannii [7]) | Ratio (Acinetobacter baumannii [8]) | MAC (Acinetobacter baumannii [10]) | Ratio (Acinetobacter baumannii [11]) | Activity (Escherichia coli [16]) | Activity (Klebsiella pneumoniae [17]) | Activity (Acinetobacter baumannii [18]) | Activity (Pseudomonas aeruginosa [19]) | MAC (Escherichia coli [20]) | also measured
– | – | – | – | – | 64 µg/mL | 128 µg/mL | 64 µg/mL | 64 µg/mL | CC(C)NC(=N)NCCCCCCCCNC(N)=O.O=C(O)C(F)(F)F | – | – | – | – | – | – | inactive | inactive | inactive | inactive | – | –
– | – | – | – | – | 64 µg/mL | 128 µg/mL | 64 µg/mL | 32 µg/mL | CCNC(=N)NCCCCCCCCNC(N)=O.O=C(O)C(F)(F)F | – | – | – | – | – | – | inactive | inactive | inactive | inactive | – | –
– | – | – | – | – | 128 µg/mL | 128 µg/mL | 64 µg/mL | 32 µg/mL | CNC(=N)NCCCCCCCCNC(N)=O.O=C(O)C(F)(F)F | – | – | – | – | – | – | inactive | inactive | inactive | inactive | – | –
16 µg/mL (≈ 21.8 µM) | 32 µg/mL (≈ 43.6 µM) | 128 µg/mL (≈ 175 µM) | 256 µg/mL (≈ 349 µM) | > 256 µg/mL | – | – | – | – | N=C(N)NCCCCCCN(CCCCCCNC(=N)NCC1CC1)C(=O)N(CCCCCCNC(=N)N)CCCCCCNC(=N)NCC1CC1 | 8 µg/mL | 32 | 1 µg/mL | 128 | >256 µg/mL | 1 | – | – | – | – | 1 µg/mL | Ratio (Escherichia coli [21]): 16; MAC (Klebsiella pneumoniae [22]): 16 µg/mL; Ratio (Klebsiella pneumoniae [23]): 2
– | – | – | – | – | 128 µg/mL | 128 µg/mL | 128 µg/mL | 128 µg/mL | N=C(NCCCCCCNC(N)=O)NCC1CC1.O=C(O)C(F)(F)F | – | – | – | – | – | – | inactive | inactive | inactive | inactive | – | –
32 µg/mL | 32 µg/mL | 64 µg/mL | > 256 µg/mL | 32 µg/mL | 8 µg/mL | 16 µg/mL | 8 µg/mL | 2 µg/mL | O=C(O)C(F)(F)F.[N-]=[N+]=NCCCCCCCCN(CCCCCCCCNC(=N)N)C(=O)N(CCCCCCCCN=[N+]=[N-])CCCCCCCCNC(=N)N | 16 µg/mL | >16 | 64 µg/mL | 1 | 32 µg/mL | 1 | – | – | – | – | 32 µg/mL | Ratio (Escherichia coli [21]): 1; MAC (Klebsiella pneumoniae [22]): 2 µg/mL; Ratio (Klebsiella pneumoniae [23]): 16
